Measurements: PMC5432998, “Recombinant expression of thermostable processive MtEG5 endoglucanase and its synergism with MtLPMO from Myceliophthora thermophila during the hydrolysis of lignocellulosic substrates” (Biotechnology for Biofuels, 2017)

Target: T1, MtEG5A (Thermothelomyces thermophilus, UniProt G2Q5D8)
T1 construct: gene MYCTH_86753; mature GH5 with CBM1; ORF 389 aa, signal peptide removed (printed MKSSILASVFATGAVA); C-terminal myc/His tag; Pichia pastoris X33
T1 sequence (G2Q5D8 17-389): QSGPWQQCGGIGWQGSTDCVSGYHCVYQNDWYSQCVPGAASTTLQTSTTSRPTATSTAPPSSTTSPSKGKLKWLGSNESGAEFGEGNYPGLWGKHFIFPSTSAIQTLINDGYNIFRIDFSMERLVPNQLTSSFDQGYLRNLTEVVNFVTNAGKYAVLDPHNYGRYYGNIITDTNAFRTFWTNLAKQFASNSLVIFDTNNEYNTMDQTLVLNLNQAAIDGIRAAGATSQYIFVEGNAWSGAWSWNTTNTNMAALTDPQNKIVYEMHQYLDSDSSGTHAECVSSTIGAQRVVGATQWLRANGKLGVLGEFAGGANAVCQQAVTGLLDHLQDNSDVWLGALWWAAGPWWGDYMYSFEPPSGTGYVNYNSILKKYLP
Test: HPAEC-PAD hydrolysis time course
Format: biochemical
Conditions: 40 uM substrate; citrate-phosphate pH 5.0; 50 °C

Compound: OC[C@H]1O[C@@H](O[C@H]2[C@H](O)[C@@H](O)[C@H](O[C@H]3[C@H](O)[C@@H](O)[C@H](O[C@H]4[C@H](O)[C@@H](O)[C@H](O[C@H]5[C@H](O)[C@@H](O)[C@H](O[C@H]6[C@H](O)[C@@H](O)C(O)O[C@@H]6CO)O[C@@H]5CO)O[C@@H]4CO)O[C@@H]3CO)O[C@@H]2CO)[C@H](O)[C@@H](O)[C@@H]1O (some centres unmarked) [G6, cellohexaose]
- HPAEC-PAD hydrolysis time course: The comparison of catalytic efficiency (k cat /K m) values of MtEG5A against the oligosaccharides

Compound: OC[C@H]1O[C@@H](O[C@H]2[C@H](O)[C@@H](O)[C@H](O[C@H]3[C@H](O)[C@@H](O)[C@H](O[C@H]4[C@H](O)[C@@H](O)[C@H](O[C@H]5[C@H](O)[C@@H](O)C(O)O[C@@H]5CO)O[C@@H]4CO)O[C@@H]3CO)O[C@@H]2CO)[C@H](O)[C@@H](O)[C@@H]1O (some centres unmarked) [G5, cellopentaose]
- HPAEC-PAD hydrolysis time course: the enzyme catalyzed the hydrolysis of G5, the products were G2 and G3
